According to patent US5191079A, “Quinolinecarboxylic acid derivatives” (priority 1990, dated 1993):
≈ marks a conversion by molar mass, not a printed value. Where a name gives a salt, the structure may show the parent alone. Read-outs that look alike come from different tables or passages of the source.

Tests used:
Assay type in all cases: cell-based
[1] = test system: clinically isolated Staphylococcus epidermidis; assay: In vitro antibacterial activity against clinical isolates, Experiment 2; details: for MIC / MIC50 / MIC90: Staphylococcus epidermidis; for MIC90: 90% of strains, read-out: MIC90
Method in brief: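 Stock: compound diluted in sterile distilled water to 1000 μg/ml. Preculture: sensitivity test broth. MIC read-out: sensitivity test agar medium. Strains: clinical isolates, Nov. 1988–Jun. 1989.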

[2] = test system: Staphylococcus aureus FDA 243; assay: MIC, Experiment 1; details: FDA243, S. aureus FDA 243, Gram +, read-out: Min. inhib. concentr. (MIC)
Method in brief: (§1)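 Compounds were dissolved in DMSO or sterile water at 5000 μg/ml, then diluted with sterile water to a 1000 μg/ml standard solution. Testing followed the Japan Society of Chemotherapy method. S. aureus and B. cereus were run on sensitivity test agar; pneumococci were run on horse-blood heart infusion agar.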

[3] = test system: Proteus mirabilis IFO 3849; assay: MIC, Experiment 1; details: IFO3849, P. mirabilis IFO 3849, Gram -, read-out: Min. inhib. concentr. (MIC)
Method in brief: (§2)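 Stock solutions (5000 μg/ml, in DMSO or water) were diluted to 1000 μg/ml working standards. MICs were measured per the Japan Society of Chemotherapy procedure, with media matched to each organism: blood-supplemented heart infusion agar for S. pneumoniae and sensitivity test agar for the remaining strains.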

Bacillus cereus IAM 1029 = assay: MIC, Experiment 1; details: IAM1029, B. cereus IAM 1029, Gram +, read-out: Min. inhib. concentr. (MIC)
Method in brief: as §1

[4] = test system: Micrococcus luteus ATCC 9341; assay: MIC, Experiment 1; details: ATCC9341, M. luteus ATCC 9341, Gram +, read-out: Min. inhib. concentr. (MIC)
Method in brief: as §2

[5] = test system: Streptococcus pyogenes Sv; assay: MIC, Experiment 1; details: S. pyogenes Sv, Gram +, agar with 5% defibrinated horse blood, read-out: Min. inhib. concentr. (MIC)
Method in brief: (§3)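 Stocks: 5000 μg/ml in DMSO or sterile distilled water; standard: 1000 μg/ml after water dilution. Method: Japan Society of Chemotherapy.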

[6] = test system: Bacillus subtilis ATCC 6633; assay: MIC, Experiment 1; details: ATCC6633, B. subtilis ATCC 6633, Gram +, read-out: Min. inhib. concentr. (MIC)
Method in brief: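 Agar MIC testing follows the Japan Society of Chemotherapy method. Compounds came from 1000 μg/ml aqueous standard solutions made from 5000 μg/ml stocks in DMSO or water. Blood-enriched heart infusion agar served for S. pneumoniae, and sensitivity test agar served for the other bacteria.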

[7] = test system: Acinetobacter calcoaceticus Ac 54; assay: MIC, Experiment 1; details: AC54, A. calcoaceticus Ac 54, Gram -, read-out: Min. inhib. concentr. (MIC)
Method in brief: as §2

[8] = test system: Streptococcus pneumoniae IID 554; assay: MIC, Experiment 1; details: IID554, S. pneumoniae IID 554, Gram +, agar with 5% defibrinated horse blood, read-out: Min. inhib. concentr. (MIC)
Method in brief: as §1

[9] = test system: Streptococcus pyogenes Su; assay: MIC, Experiment 1; details: S. pyogenes Su, Gram +, agar with 5% defibrinated horse blood, read-out: Min. inhib. concentr. (MIC)
Method in brief: as §3

[10] = test system: Pseudomonas aeruginosa NCTC 10490; assay: MIC, Experiment 1; details: NCTC10490, P. aeruginosa NCTC 10490, Gram -, read-out: Min. inhib. concentr. (MIC)
Method in brief: as §2

[11] = test system: Staphylococcus aureus Terajima (IID 670); assay: MIC, Experiment 1; details: IID670, S. aureus Terajima (IID 670), Gram +, read-out: Min. inhib. concentr. (MIC)
Method in brief: as §1

Enterobacter cloacae 963 = assay: MIC, Experiment 1; details: E. cloacae 963, Gram -, read-out: Min. inhib. concentr. (MIC)
Method in brief: as §2

[12] = test system: Staphylococcus aureus FDA 209P JC-1; assay: MIC, Experiment 1; details: FDA209P, S. aureus FDA 209P JC-1, Gram +, read-out: Min. inhib. concentr. (MIC)
Method in brief: as §1

[13] = test system: Staphylococcus aureus IID 803; assay: MIC, Experiment 1; details: IID803, S. aureus IID 803, Gram +, read-out: Min. inhib. concentr. (MIC)
Method in brief: as §1

[14] = test system: Staphylococcus aureus Cowan I (IID 975); assay: MIC, Experiment 1; details: IID975, S. aureus Cowan I (IID 975), Gram +, read-out: Min. inhib. concentr. (MIC)
Method in brief: as §1

[15] = test system: Staphylococcus aureus ATCC 9144; assay: MIC, Experiment 1; details: ATCC9144, S. aureus ATCC 9144, Gram +, read-out: Min. inhib. concentr. (MIC)
Method in brief: as §1

[16] = test system: Streptococcus pyogenes Cook; assay: MIC, Experiment 1; details: S. pyogenes Cook, Gram +, agar with 5% defibrinated horse blood, read-out: Min. inhib. concentr. (MIC)
Method in brief: as §3

[17] = test system: Escherichia coli NIHJ JC-2; assay: MIC, Experiment 1; details: NIHJJC2, E. coli NIHJ JC-2, Gram -, read-out: Min. inhib. concentr. (MIC)
Method in brief: as §2

[18] = test system: Staphylococcus aureus MS-353; assay: MIC, Experiment 1; details: MS353, S. aureus MS-353, Gram +, read-out: Min. inhib. concentr. (MIC)
Method in brief: as §1

[19] = test system: Streptococcus pneumoniae IID 552; assay: MIC, Experiment 1; details: IID552, S. pneumoniae IID 552, Gram +, agar with 5% defibrinated horse blood, read-out: Min. inhib. concentr. (MIC)
Method in brief: as §1

[20] = test system: Klebsiella pneumoniae PCI-602; assay: MIC, Experiment 1; details: PCI602, K. pneumoniae PCI-602, Gram -, read-out: Min. inhib. concentr. (MIC)
Method in brief: as §2

[21] = 25 clinical strains S. epidermidis
[22] = 25 clinical strains S. epidermidis, 50% of strains, read-out: MIC50

SMILES | MIC90 [1, 21] [µg/mL] | MIC [2] [µg/mL] | MIC [3] [µg/mL] | MIC (Bacillus cereus IAM 1029) [µg/mL] | MIC [4] [µg/mL] | MIC [5] [µg/mL] | MIC [6] [µg/mL] | MIC [7] [µg/mL] | MIC [8] [µg/mL] | MIC [9] [µg/mL] | MIC [10] [µg/mL] | MIC [11] [µg/mL] | MIC (Enterobacter cloacae 963) [µg/mL] | MIC [12] [µg/mL] | MIC [13] [µg/mL] | MIC [14] [µg/mL] | MIC [15] [µg/mL] | MIC [16] [µg/mL] | MIC [17] [µg/mL] | MIC [18] [µg/mL] | further results
COC[C@@H]1CN(c2c(F)cc3c(=O)c(C(=O)O)c4scc5n4c3c2N(C)C5)CCO1 [Compound (O), 9,1-(Methylimino)methano-7-fluoro-8-[(2S)-2-methoxymethylmorpholino)-5-oxo-5H-thiazolo[3,2-a]quinoline-4-carboxylic acid] | 0.39 (≈ 0.9 µM) | ≤ 0.006 | 0.78 (≈ 1.8 µM) | 0.025 (≈ 0.0577 µM) | 0.1 (≈ 0.231 µM) | 0.05 (≈ 0.115 µM) | 0.013 (≈ 0.03 µM) | 0.013 (≈ 0.03 µM) | 0.05 (≈ 0.115 µM) | 0.05 (≈ 0.115 µM) | 0.78 (≈ 1.8 µM) | 0.025 (≈ 0.0577 µM) | 0.78 (≈ 1.8 µM) | 0.025 (≈ 0.0577 µM) | 0.013 (≈ 0.03 µM) | ≤ 0.006 | 0.025 (≈ 0.0577 µM) | 0.05 (≈ 0.115 µM) | 0.2 (≈ 0.461 µM) | 0.013 (≈ 0.03 µM) | MIC [1, 21]: 0.006 to 0.78 µg/mL (≈ 0.0138 to 1.8 µM); MIC50 [1, 22]: 0.05 µg/mL (≈ 0.115 µM); MIC [19]: 0.05 µg/mL (≈ 0.115 µM); MIC [20]: 0.013 µg/mL (≈ 0.03 µM)
COC[C@H]1CN(c2c(F)cc3c(=O)c(C(=O)O)c4scc5n4c3c2N(C)C5)CCO1 [Compound (P), 9,1-(Methylimino)methano-7-fluoro-8-[(2R)-2-methoxymethylmorpholino)-5-oxo-5H-thiazolo[3,2-a]quinoline-4-carboxylic acid] | 0.39 (≈ 0.9 µM) | ≤ 0.006 | 0.78 (≈ 1.8 µM) | 0.025 (≈ 0.0577 µM) | 0.2 (≈ 0.461 µM) | 0.1 (≈ 0.231 µM) | ≤ 0.006 | 0.013 (≈ 0.03 µM) | 0.1 (≈ 0.231 µM) | 0.05 (≈ 0.115 µM) | 1.56 (≈ 3.6 µM) | 0.05 (≈ 0.115 µM) | 1.56 (≈ 3.6 µM) | 0.05 (≈ 0.115 µM) | 0.025 (≈ 0.0577 µM) | 0.006 (≈ 0.0138 µM) | 0.013 (≈ 0.03 µM) | 0.05 (≈ 0.115 µM) | 0.2 (≈ 0.461 µM) | 0.025 (≈ 0.0577 µM) | MIC [1, 21]: 0.006 to 0.78 µg/mL (≈ 0.0138 to 1.8 µM); MIC50 [1, 22]: 0.05 µg/mL (≈ 0.115 µM); MIC [19]: 0.05 µg/mL (≈ 0.115 µM); MIC [20]: 0.025 µg/mL (≈ 0.0577 µM)
CCOCC1CN(c2c(F)cc3c(=O)c(C(=O)O)c4scc5n4c3c2N(C)C5)CCO1 (stereo not drawn) [Compound (Q), 9,1-(Methylimino)methano-7-fluoro-8-(2-ethoxymethylmorpholino)-5-oxo-5H-thiazolo[3,2-a]quinoline-4-carboxylic acid] | 0.39 (≈ 0.872 µM) | 0.05 (≈ 0.112 µM) | 1.56 (≈ 3.49 µM) | 0.1 (≈ 0.223 µM) | 0.39 (≈ 0.872 µM) | 0.39 (≈ 0.872 µM) | 0.05 (≈ 0.112 µM) | 0.05 (≈ 0.112 µM) | 0.39 (≈ 0.872 µM) | 0.2 (≈ 0.447 µM) | 1.56 (≈ 3.49 µM) | 0.1 (≈ 0.223 µM) | 1.56 (≈ 3.49 µM) | 0.1 (≈ 0.223 µM) | 0.05 (≈ 0.112 µM) | 0.05 (≈ 0.112 µM) | 0.025 (≈ 0.0559 µM) | 0.2 (≈ 0.447 µM) | 0.78 (≈ 1.74 µM) | 0.1 (≈ 0.223 µM) | MIC50 [1]: 0.025 µg/mL (≈ 0.0559 µM); MIC [1, 21]: 0.006 to 0.78 µg/mL (≈ 0.0134 to 1.74 µM); MIC [19]: 0.39 µg/mL (≈ 0.872 µM); MIC [20]: 0.2 µg/mL (≈ 0.447 µM)
CN1CCN(c2c(F)cc3c(=O)c(C(=O)O)c4scc5n4c3c2OC5)CC1 [Compound (Y), 9,1-Epoxymethano-7-fluoro-8-(4-methyl-1-piperazinyl)-5-oxo-5H-thiazolo[3,2-a]quinoline-4-carboxylic acid hydrochloride, reference compound] | 12.5 | 0.05 | 0.2 | 0.39 | 1.56 | 0.2 | 0.1 | 0.2 | 0.2 | 0.1 | 0.78 | 0.1 | 0.1 | 0.2 | 0.2 | 0.1 | 0.05 | 0.1 | 0.1 | 0.1 | MICrange [1, 21]: 0.025 to 25 µg/mL; MIC50 [1, 22]: 0.1 µg/mL; MIC [19]: 0.1 µg/mL; MIC [20]: 0.025 µg/mL
